# Assay results: paper PMC9817970 (Cancers, 2022)
# Key:
# Test in all cases: Kinase panel profiling
# Format in all cases: biochemical
# Conditions in all cases: 10 μM ATP
# AXL = target: T1, AXL (Homo sapiens, UniProt P30530)
# T1 construct: purchased Reaction Biology Corp
# Experimental: (§1) Kinase panel profiling was conducted by Reaction Biology Corp. (San Diego, CA, USA). A single dose (1.0 μM) of 6r was tested against 371 recombinant human kinases in the presence of 10 μM ATP.
# BRSK1 = target: T2, BRSK1 (Homo sapiens, UniProt Q8TDC3)
# T2 construct: purchased Reaction Biology Corp
# Experimental: as §1
# BTK = target: T3, BTK (Homo sapiens, UniProt Q06187)
# T3 construct: purchased Reaction Biology Corp
# Experimental: as §1
# CAMK1d = target: T4, CAMK1d (Homo sapiens, UniProt Q8IU85)
# T4 construct: purchased Reaction Biology Corp
# Experimental: as §1
# CAMK4 = target: T5, CAMK4 (Homo sapiens, UniProt Q16566)
# T5 construct: purchased Reaction Biology Corp
# Experimental: as §1
# CDK4/cyclin D1 = target: T6, CDK4/cyclin D1 (Homo sapiens, UniProt P11802)
# T6 construct: purchased Reaction Biology Corp
# Experimental: as §1
# CDK8/cyclin C = target: T7, CDK8/cyclin C (Homo sapiens, UniProt P49336)
# T7 construct: purchased Reaction Biology Corp
# Experimental: as §1
# CDK9/cyclin T2 = target: T8, CDK9/cyclin T2 (Homo sapiens, UniProt P50750)
# T8 construct: purchased Reaction Biology Corp
# Experimental: as §1
# CK1g2 = target: T9, CK1g2 (Homo sapiens, UniProt P78368)
# T9 construct: purchased Reaction Biology Corp
# Experimental: as §1
# CLK4 = target: T10, CLK4 (Homo sapiens, UniProt Q9HAZ1)
# T10 construct: purchased Reaction Biology Corp
# Experimental: as §1
# DYRK3 = target: T11, DYRK3 (Homo sapiens, UniProt O43781)
# T11 construct: purchased Reaction Biology Corp
# Experimental: as §1
# DYRK4 = target: T12, DYRK4 (Homo sapiens, UniProt Q9NR20)
# T12 construct: purchased Reaction Biology Corp
# Experimental: as §1
# EPHB1 = target: T13, EPHB1 (Homo sapiens, UniProt P54762)
# T13 construct: purchased Reaction Biology Corp
# Experimental: as §1
# FGFR1 = target: T14, FGFR1 (Homo sapiens, UniProt P11362)
# T14 construct: purchased Reaction Biology Corp
# Experimental: as §1
# FGFR2 = target: T15, FGFR2 (Homo sapiens, UniProt P21802)
# T15 construct: purchased Reaction Biology Corp
# Experimental: as §1
# GRK6 = target: T16, GRK6 (Homo sapiens, UniProt P43250)
# T16 construct: purchased Reaction Biology Corp
# Experimental: as §1
# HIPK2 = target: T17, HIPK2 (Homo sapiens, UniProt Q9H2X6)
# T17 construct: purchased Reaction Biology Corp
# Experimental: as §1
# HPK1/MAP4K1 = target: T18, HPK1/MAP4K1 (Homo sapiens, UniProt Q92918)
# T18 construct: purchased Reaction Biology Corp
# Experimental: as §1
# IRAK1 = target: T19, IRAK1 (Homo sapiens, UniProt P51617)
# T19 construct: purchased Reaction Biology Corp
# Experimental: as §1
# JNK2 = target: T20, JNK2 (Homo sapiens, UniProt P45984)
# T20 construct: purchased Reaction Biology Corp
# Experimental: as §1
# JNK3 = target: T21, JNK3 (Homo sapiens, UniProt P53779)
# T21 construct: purchased Reaction Biology Corp
# Experimental: as §1
# KSR1 = target: T22, KSR1 (Homo sapiens, UniProt Q8IVT5)
# T22 construct: purchased Reaction Biology Corp
# Experimental: as §1
# LIMK2 = target: T23, LIMK2 (Homo sapiens, UniProt P53671)
# T23 construct: purchased Reaction Biology Corp
# Experimental: as §1
# MEKK6 = target: T24, MEKK6 (Homo sapiens, UniProt O95382)
# T24 construct: purchased Reaction Biology Corp
# Experimental: as §1
# MLK2/MAP3K10 = target: T25, MLK2/MAP3K10 (Homo sapiens, UniProt Q02779)
# T25 construct: purchased Reaction Biology Corp
# Experimental: as §1
# MST4 = target: T26, MST4 (Homo sapiens, UniProt Q9P289)
# T26 construct: purchased Reaction Biology Corp
# Experimental: as §1
# MYLK3 = target: T27, MYLK3 (Homo sapiens, UniProt Q32MK0)
# T27 construct: purchased Reaction Biology Corp
# Experimental: as §1
# P38g = target: T28, P38g (Homo sapiens, UniProt P53778)
# T28 construct: purchased Reaction Biology Corp
# Experimental: as §1
# PAK6 = target: T29, PAK6 (Homo sapiens, UniProt Q9NQU5)
# T29 construct: purchased Reaction Biology Corp
# Experimental: as §1
# PIM3 = target: T30, PIM3 (Homo sapiens, UniProt Q86V86)
# T30 construct: purchased Reaction Biology Corp
# Experimental: as §1
# PKAcb = target: T31, PKAcb (Homo sapiens, UniProt P22694)
# T31 construct: purchased Reaction Biology Corp
# Experimental: as §1
# PKCzeta = target: T32, PKCzeta (Homo sapiens, UniProt Q05513)
# T32 construct: purchased Reaction Biology Corp
# Experimental: as §1
# PKN3/PRK3 = target: T33, PKN3/PRK3 (Homo sapiens, UniProt Q6P5Z2)
# T33 construct: purchased Reaction Biology Corp
# Experimental: as §1
# RET = target: T34, RET (Homo sapiens, UniProt P07949)
# T34 construct: purchased Reaction Biology Corp
# Experimental: as §1
# SIK3 = target: T35, SIK3 (Homo sapiens, UniProt Q9Y2K2)
# T35 construct: purchased Reaction Biology Corp
# Experimental: as §1
# SSTK/TSSK6 = target: T36, SSTK/TSSK6 (Homo sapiens, UniProt Q9BXA6)
# T36 construct: purchased Reaction Biology Corp
# Experimental: as §1
# TAK1 = target: T37, TAK1 (Homo sapiens, UniProt O43318)
# T37 construct: purchased Reaction Biology Corp
# Experimental: as §1
# TAOK1 = target: T38, TAOK1 (Homo sapiens, UniProt Q7L7X3)
# T38 construct: purchased Reaction Biology Corp
# Experimental: as §1
# TAOK2/TAO1 = target: T39, TAOK2/TAO1 (Homo sapiens, UniProt Q9UL54)
# T39 construct: purchased Reaction Biology Corp
# Experimental: as §1
# TESK2 = target: T40, TESK2 (Homo sapiens, UniProt Q96S53)
# T40 construct: purchased Reaction Biology Corp
# Experimental: as §1
# TLK2 = target: T41, TLK2 (Homo sapiens, UniProt Q86UE8)
# T41 construct: purchased Reaction Biology Corp
# Experimental: as §1
# ULK3 = target: T42, ULK3 (Homo sapiens, UniProt Q6PHR2)
# T42 construct: purchased Reaction Biology Corp
# Experimental: as §1
# ZAK/MLTK = target: T43, ZAK/MLTK (Homo sapiens, UniProt Q9NYL2)
# T43 construct: purchased Reaction Biology Corp
# Experimental: as §1
# T4 sequence (Q8IU85 whole entry): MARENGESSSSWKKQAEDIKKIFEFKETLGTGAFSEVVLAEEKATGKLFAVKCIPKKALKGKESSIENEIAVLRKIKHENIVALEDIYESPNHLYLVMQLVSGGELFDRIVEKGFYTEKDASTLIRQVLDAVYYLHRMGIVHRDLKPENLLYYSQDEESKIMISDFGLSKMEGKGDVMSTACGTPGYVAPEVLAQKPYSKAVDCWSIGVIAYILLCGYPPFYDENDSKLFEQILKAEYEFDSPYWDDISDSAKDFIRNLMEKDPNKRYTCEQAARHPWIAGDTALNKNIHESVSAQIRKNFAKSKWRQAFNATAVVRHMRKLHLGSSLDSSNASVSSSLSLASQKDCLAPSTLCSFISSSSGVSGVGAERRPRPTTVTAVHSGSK
# T43 sequence (Q9NYL2 whole entry): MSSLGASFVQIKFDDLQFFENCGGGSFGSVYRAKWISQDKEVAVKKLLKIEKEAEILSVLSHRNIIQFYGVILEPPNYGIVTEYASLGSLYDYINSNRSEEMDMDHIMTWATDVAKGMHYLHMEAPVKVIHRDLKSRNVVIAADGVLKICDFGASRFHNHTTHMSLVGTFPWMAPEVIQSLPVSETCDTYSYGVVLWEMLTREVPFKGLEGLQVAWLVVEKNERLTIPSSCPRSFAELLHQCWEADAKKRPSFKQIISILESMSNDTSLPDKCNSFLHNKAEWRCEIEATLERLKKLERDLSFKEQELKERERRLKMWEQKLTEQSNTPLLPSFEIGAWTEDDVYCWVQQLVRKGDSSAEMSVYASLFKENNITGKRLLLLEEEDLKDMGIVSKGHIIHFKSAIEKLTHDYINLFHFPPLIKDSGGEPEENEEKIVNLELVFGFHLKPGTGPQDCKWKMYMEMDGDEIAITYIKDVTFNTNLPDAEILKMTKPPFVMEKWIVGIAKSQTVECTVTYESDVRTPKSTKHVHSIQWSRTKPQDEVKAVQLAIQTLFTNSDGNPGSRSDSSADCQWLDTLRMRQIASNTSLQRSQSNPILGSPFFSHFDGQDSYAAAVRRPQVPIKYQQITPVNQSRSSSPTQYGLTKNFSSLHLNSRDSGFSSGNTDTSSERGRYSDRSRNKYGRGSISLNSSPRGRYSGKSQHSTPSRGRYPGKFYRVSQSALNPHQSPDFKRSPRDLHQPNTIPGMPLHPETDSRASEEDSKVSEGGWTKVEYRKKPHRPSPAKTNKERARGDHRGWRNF
# T8 sequence (P50750 whole entry): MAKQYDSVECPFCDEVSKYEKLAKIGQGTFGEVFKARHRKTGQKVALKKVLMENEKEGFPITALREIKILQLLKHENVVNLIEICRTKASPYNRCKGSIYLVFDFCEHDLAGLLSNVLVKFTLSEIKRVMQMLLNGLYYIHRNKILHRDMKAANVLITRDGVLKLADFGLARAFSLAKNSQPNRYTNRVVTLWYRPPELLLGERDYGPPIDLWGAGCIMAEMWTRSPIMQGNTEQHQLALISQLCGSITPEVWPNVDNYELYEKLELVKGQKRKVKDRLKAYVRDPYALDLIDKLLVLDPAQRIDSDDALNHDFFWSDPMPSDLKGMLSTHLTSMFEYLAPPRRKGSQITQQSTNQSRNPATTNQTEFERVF
# T8 sequence (O60583 whole entry partner): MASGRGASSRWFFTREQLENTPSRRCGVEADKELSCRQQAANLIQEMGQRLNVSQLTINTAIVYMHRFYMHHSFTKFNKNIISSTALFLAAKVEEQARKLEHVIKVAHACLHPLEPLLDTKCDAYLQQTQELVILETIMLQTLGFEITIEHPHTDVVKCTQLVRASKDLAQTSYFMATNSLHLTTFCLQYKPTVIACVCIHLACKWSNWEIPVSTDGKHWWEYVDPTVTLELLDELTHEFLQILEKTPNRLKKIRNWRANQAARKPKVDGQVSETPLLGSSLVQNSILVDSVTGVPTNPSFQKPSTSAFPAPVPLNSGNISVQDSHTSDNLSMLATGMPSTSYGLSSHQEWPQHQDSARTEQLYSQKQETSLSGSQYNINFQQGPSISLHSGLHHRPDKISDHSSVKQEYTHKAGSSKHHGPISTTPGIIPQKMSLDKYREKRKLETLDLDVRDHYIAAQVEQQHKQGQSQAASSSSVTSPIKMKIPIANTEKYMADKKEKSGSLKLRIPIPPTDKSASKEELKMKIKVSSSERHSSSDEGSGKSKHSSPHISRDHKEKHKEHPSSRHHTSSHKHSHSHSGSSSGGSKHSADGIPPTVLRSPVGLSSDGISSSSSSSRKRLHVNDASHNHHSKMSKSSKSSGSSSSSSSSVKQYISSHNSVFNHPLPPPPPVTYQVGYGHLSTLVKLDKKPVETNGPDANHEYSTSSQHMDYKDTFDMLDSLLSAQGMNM
# T42 sequence (Q6PHR2 whole entry): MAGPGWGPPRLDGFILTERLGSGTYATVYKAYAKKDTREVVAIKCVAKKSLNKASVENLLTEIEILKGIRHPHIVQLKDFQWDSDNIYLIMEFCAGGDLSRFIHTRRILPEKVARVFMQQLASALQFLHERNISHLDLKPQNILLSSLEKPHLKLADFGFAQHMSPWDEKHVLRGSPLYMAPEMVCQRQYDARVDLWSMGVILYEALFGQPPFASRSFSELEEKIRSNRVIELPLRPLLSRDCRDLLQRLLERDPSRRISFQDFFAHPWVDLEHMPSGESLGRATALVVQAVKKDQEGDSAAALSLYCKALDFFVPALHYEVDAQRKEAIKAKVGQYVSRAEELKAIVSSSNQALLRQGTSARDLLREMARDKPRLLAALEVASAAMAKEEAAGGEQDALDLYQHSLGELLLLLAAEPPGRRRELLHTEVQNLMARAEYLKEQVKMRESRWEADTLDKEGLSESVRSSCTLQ
# T3 sequence (Q06187 whole entry): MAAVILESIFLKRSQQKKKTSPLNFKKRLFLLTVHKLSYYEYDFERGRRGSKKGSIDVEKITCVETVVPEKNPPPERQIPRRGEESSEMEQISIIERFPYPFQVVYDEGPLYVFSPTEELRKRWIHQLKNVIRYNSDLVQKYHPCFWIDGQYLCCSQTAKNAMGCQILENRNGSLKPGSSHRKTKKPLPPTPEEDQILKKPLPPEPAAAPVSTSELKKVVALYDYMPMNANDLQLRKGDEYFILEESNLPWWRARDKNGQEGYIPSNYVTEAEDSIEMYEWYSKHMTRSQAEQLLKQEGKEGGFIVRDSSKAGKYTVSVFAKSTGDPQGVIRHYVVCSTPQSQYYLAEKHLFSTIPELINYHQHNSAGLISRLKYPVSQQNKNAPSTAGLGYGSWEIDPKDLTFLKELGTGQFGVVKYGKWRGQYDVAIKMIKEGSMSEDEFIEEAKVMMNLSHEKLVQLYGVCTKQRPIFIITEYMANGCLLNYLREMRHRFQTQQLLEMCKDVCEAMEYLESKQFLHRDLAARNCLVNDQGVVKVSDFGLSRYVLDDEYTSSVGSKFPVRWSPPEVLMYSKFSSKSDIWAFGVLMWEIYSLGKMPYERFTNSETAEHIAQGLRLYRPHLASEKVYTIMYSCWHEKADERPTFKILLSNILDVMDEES
# T34 sequence (P07949 29-1114): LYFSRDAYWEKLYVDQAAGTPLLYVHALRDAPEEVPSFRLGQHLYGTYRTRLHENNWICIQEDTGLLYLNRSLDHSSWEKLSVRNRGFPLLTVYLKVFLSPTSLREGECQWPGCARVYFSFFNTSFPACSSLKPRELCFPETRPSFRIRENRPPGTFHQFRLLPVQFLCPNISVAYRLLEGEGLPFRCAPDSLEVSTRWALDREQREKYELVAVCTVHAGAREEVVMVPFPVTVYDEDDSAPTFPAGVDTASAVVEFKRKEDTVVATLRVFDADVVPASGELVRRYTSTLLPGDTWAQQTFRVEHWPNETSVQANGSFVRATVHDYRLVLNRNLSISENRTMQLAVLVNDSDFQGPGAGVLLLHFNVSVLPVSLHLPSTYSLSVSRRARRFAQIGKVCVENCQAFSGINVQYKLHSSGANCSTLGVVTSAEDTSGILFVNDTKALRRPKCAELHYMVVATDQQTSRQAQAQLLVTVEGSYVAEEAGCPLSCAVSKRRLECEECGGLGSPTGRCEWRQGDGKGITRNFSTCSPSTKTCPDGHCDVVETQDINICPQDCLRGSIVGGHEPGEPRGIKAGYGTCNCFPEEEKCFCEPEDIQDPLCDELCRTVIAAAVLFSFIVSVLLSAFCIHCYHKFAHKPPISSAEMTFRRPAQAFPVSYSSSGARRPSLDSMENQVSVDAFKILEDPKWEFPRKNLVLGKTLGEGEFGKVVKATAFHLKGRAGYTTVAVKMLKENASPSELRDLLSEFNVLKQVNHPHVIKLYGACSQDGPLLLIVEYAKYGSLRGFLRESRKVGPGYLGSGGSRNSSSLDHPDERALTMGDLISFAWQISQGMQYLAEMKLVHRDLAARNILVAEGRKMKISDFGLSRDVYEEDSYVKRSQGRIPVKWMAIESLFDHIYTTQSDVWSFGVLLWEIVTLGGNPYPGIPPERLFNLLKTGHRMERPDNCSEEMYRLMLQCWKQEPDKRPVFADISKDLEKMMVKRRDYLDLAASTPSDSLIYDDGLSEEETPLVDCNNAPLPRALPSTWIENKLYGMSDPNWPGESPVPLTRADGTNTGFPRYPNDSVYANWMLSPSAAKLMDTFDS
# T10 sequence (Q9HAZ1 whole entry): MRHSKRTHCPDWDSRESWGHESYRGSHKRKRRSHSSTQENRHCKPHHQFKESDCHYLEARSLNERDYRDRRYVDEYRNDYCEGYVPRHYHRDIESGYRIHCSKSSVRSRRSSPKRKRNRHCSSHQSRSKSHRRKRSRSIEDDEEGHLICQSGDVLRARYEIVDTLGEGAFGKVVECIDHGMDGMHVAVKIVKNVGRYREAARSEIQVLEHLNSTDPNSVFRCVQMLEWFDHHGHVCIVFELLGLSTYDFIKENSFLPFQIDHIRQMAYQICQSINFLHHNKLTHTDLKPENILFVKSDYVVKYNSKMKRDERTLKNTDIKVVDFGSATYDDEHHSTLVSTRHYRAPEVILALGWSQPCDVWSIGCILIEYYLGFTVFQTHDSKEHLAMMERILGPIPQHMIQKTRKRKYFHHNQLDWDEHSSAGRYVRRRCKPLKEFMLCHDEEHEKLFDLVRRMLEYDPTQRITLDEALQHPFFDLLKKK
structure (smiles),measurement,setting,value
Cc1ccc(NC(=O)c2ccc(CN3CCN(C)CC3)c(C(F)(F)F)c2)cc1-c1cnc2sc(N)nc2c1 [6r],inhibition at 1 µM,AXL,15.8%
same,inhibition at 1 µM,BRSK1,0%
same,inhibition at 1 µM,BTK,4.7%
same,inhibition at 1 µM,CAMK1d,14.3%
same,inhibition at 1 µM,CAMK4,3.2%
same,inhibition at 1 µM,CDK4/cyclin D1,4.7%
same,inhibition at 1 µM,CDK8/cyclin C,0%
same,inhibition at 1 µM,CDK9/cyclin T2,0%
same,inhibition at 1 µM,CK1g2,38.9%
same,inhibition at 1 µM,CLK4,7.7%
same,inhibition at 1 µM,DYRK3,0%
same,inhibition at 1 µM,DYRK4,0%
same,inhibition at 1 µM,EPHB1,65.7%
same,inhibition at 1 µM,FGFR1,20.7%
same,inhibition at 1 µM,FGFR2,43%
same,inhibition at 1 µM,GRK6,0%
same,inhibition at 1 µM,HIPK2,0.5%
same,inhibition at 1 µM,HPK1/MAP4K1,0%
same,inhibition at 1 µM,IRAK1,0%
same,inhibition at 1 µM,JNK2,31.8%
same,inhibition at 1 µM,JNK3,5.1%
same,inhibition at 1 µM,KSR1,5.5%
same,inhibition at 1 µM,LIMK2,39.9%
same,inhibition at 1 µM,MEKK6,8%
same,inhibition at 1 µM,MLK2/MAP3K10,13.4%
same,inhibition at 1 µM,MST4,15.7%
same,inhibition at 1 µM,MYLK3,0%
same,inhibition at 1 µM,P38g,0%
same,inhibition at 1 µM,PAK6,7.6%
same,inhibition at 1 µM,PIM3,3.4%
same,inhibition at 1 µM,PKAcb,0%
same,inhibition at 1 µM,PKCzeta,0%
same,inhibition at 1 µM,PKN3/PRK3,8.6%
same,inhibition at 1 µM,RET,99.4%
same,inhibition at 1 µM,SIK3,0%
same,inhibition at 1 µM,SSTK/TSSK6,0%
same,inhibition at 1 µM,TAK1,12.8%
same,inhibition at 1 µM,TAOK1,6.1%
same,inhibition at 1 µM,TAOK2/TAO1,61.9%
same,inhibition at 1 µM,TESK2,15.1%
same,inhibition at 1 µM,TLK2,0%
same,inhibition at 1 µM,ULK3,7.2%
same,inhibition at 1 µM,ZAK/MLTK,50%
